According to patent US6528675B1, “Cyanohydrin ethers and esters as high-sensitivity enzyme substrates” (The Regents of the University of California, priority 2001, dated 2003):

Assays:
[1] = test system: esterase from a rat liver microsomal preparation; assay: Specific activity of esterase against substrates; type: biochemical, Fisher 344 rats; conditions: Rat liver microsome, pH 8.0, 10 μM substrate, fluorescence 330/460 nm
Method: (§1) The esterases were porcine esterase purchased from Sigma Chemical Company, St. Louis, Mo., USA, esterase from a rat liver microsomal preparation from 8-week-old Fisher 344 rats, and homogenates of Heliothis virescens from both pyrethroid-susceptible and -resistant strains of tobacco budworm. The substrate in each case was added to a tris-maleate buffer (pH 8.0, 0.1 m) to a final substrate concentration of 10 μM, followed by the addition of the enzyme preparation. The samples were then immediately read by fluorometer at 460 nm for one minute (excitation at 330 nm). The results are listed in Table VI, where “Compound I” denotes the Example 1 substrate, and “Compound II” denotes the Example 4 substrate.

[2] = test system: cytochrome P450; assay: Substrate response to P450 enzyme activity, rat microsomal enzyme preparation; type: biochemical, rats; conditions: pH 7.6, 37° C., substrate 10 mM final concentration, average of three tests
Source text: This example compares four cytochrome P450 substrates within the scope of this invention with two cytochrome P450 substrates that are outside the scope of this invention. The four invention substrates were methoxynaphthalen-2-yl acetonitrile (whose synthesis is shown in Example 8 above and which is designated below as Compound III), ethoxynaphthalen-2-yl acetonitrile (synthesis shown in Example 9, Compound IV), benzoxynaphthalen-2-yl acetonitrile (synthesis shown in Example 10, Compound V), and pentoxynaphthalen-2-yl acetonitrile (synthesis shown in Example 11, Compound VI). The substrates outside the scope of the invention were ethoxyresorufin (designated below as Compound A) and pentoxyresorufin (designated below as Compound B). The structures of these last two substrates are as follows: [drawing 56]
All substrates were tested against a microsomal enzyme preparation from 8-week-old Fisher […] rats, by first combining 890 mL of the preparation with 2 mL of phosphate buffer (pH 7.6, 0.2 M) and incubating the mixture at 37° C. for 5 minutes. The substrate (10 mL) was then added (10 mM final concentration), followed by an appropriate signal generating system (100 mL). The samples were immediately read by fluorometer at 460 nm for 1 minute with excitation at 330 nm. The results in terms of specific activity, both with and without the enzyme system, are shown in Table VII, in which each entry represents an average of three tests.

[3] = Substrate stability in buffer, fluorescence detection; type: physicochemical
Method: (§2) The same two invention substrates and two prior art substrates were tested for stability by both UV detection and fluorescence detection under typical assay conditions.
(§3) Tris maleate buffers (0.1 M) at pH ranging from 6.0 to 9.0 in intervals of 1.0 were used, and substrate was added to 10 μM final concentration. […] The fluorescence samples were read with excitation at 360 nm and emission at 460 nm (for pH 6.0), 465 nm (for pH 7.0), 485 nm (pH 8.0), and 510 nm (pH 9.0) for the methylumbelyl acetate, and with excitation at 330 nm and emission at 460 nm for the two test compounds, in all cases, the readings over 5-minute periods.

[4] = Substrate stability in buffer, UV detection; type: physicochemical
Method: as §2, §3

[5] = test system: porcine esterase; assay: Specific activity of esterase against substrates; type: biochemical; conditions: pH 8.0, 10 μM substrate, fluorescence 330/460 nm
Method: as §1

[6] = test system: homogenate of Heliothis virescens, pyrethroid-resistant strain; assay: Specific activity of esterase against substrates; type: biochemical; conditions: H. virescens (resistant), pH 8.0, 10 μM substrate, fluorescence 330/460 nm
Method: as §1

[7] = test system: homogenate of Heliothis virescens, pyrethroid-susceptible strain; assay: Specific activity of esterase against substrates; type: biochemical; conditions: H. virescens (susceptible), pH 8.0, 10 μM substrate, fluorescence 330/460 nm
Method: as §1

[8] = Change in optical properties, UV absorption of esters and hydrolysis products; type: physicochemical; conditions: for ε (molar absorptivity): in M-1 cm-1 (unit assumed)
Source text: The substrates representing the invention were (R/S)-acetic acid cyano-(6-methoxynaphthalen-2-yl)-methyl ester (the title compound of Synthesis Example 1 above) and (trans/cis)-3-(2,2-dichlorovinyl)-2,2-dimethylcyclopropanecarboxylic acid cyano-(6-methoxynaphthalen-2-yl)-methyl ester (the title compound of Synthesis Example 2 above).

[9] = Change in optical properties, fluorescence of esters and hydrolysis products; type: physicochemical
Source text: The substrates representing the invention were (R/S)-acetic acid cyano-(6-methoxynaphthalen-2-yl)-methyl ester (the title compound of Synthesis Example 1 above) and (trans/cis)-3-(2,2-dichlorovinyl)-2,2-dimethylcyclopropanecarboxylic acid cyano-(6-methoxynaphthalen-2-yl)-methyl ester (the title compound of Synthesis Example 2 above). The substrates of the prior art were methylumbelyl acetate (for detection by fluorescence emission) and 2-naphthacetate (for detection by UV absorption) in assay solutions with different pH values. These prior art substrates were selected because both are widely used and both have aromatic systems similar to the two test compounds.
Again using tris-maleate at pH levels of 6.5, 7.5, and 8.5, fluorescence studies were performed at concentrations of 10 μM, and fluorescence of the starting esters and the hydrolysis products (hydroxycoumarin in the case of methylumbelyl acetate and 6-methoxy-naphthaldehyde in the case of the Example 1 substrate) were determined by conventional instrumentation. The results are listed in Table III in which “MUA” denotes methylumbelyl acetate, “Compound I” denotes the Example 1 substrate, “Ex” denotes the optimal excitation wavelength in nm, “Emmax” denotes the maximal emission wavelength in nm, and “RFU” denotes the relative fluorescence units multiplied by 1,000.

[10] = test system: porcine esterase; assay: Sensitivity of substrate to enzyme strength; type: biochemical; conditions: pH 8.0, 10 μM substrate, 1 unit=1 μmol/min/mL
Method: This example illustrates the sensitivity of the substrate to the enzyme, and compares a substrate in accordance with the present invention to two prior art substrates. […] The enzyme was porcine esterase.
A tris-maleate buffer at pH 8.0 (0.1 M) was used. The procedure consisted of adding substrate to a test tube containing 3 mL of buffer to a final substrate concentration of 10 μM, then adding porcine esterase at strengths of 0.06, 0.09. 0.12, 0.18, 0.30, 0.60, 0.9 and 1.2 unit, in which 1 unit=1 μmol/min/mL. […] The enzyme sensitivities for each substrate and detection method were defined as the minimal amount of enzyme per mL required to produce a signal from the substrate that was at least three times greater than the background noise.

[11] = pH 6, tris maleate 0.1 M, 10 μM substrate, no enzyme, 5-minute reading
[12] = pH 7, tris maleate 0.1 M, 10 μM substrate, no enzyme, 5-minute reading
[13] = pH 8, tris maleate 0.1 M, 10 μM substrate, no enzyme, 5-minute reading
[14] = pH 9, tris maleate 0.1 M, 10 μM substrate, no enzyme, 5-minute reading

Row | Compound | Specific Activity [1] | Substrate stability, UV Absorption [4, 11] [mAbs/min] | Substrate stability, UV Absorption [4, 12] [mAbs/min] | Substrate stability, UV Absorption [4, 13] [mAbs/min] | Substrate stability, UV Absorption [4, 14] [mAbs/min] | Specific Activity [5] | Specific Activity [6] | Specific Activity [7] | OD (optical density) ([8]; tris-maleate pH 6.5, 10 μM) | ε (molar absorptivity) ([8]; tris-maleate pH 6.5, 10 μM) | OD (optical density) ([8]; tris-maleate pH 7.5, 10 μM) | ε (molar absorptivity) ([8]; tris-maleate pH 7.5, 10 μM) | OD (optical density) ([8]; tris-maleate pH 8.5, 10 μM) | ε (molar absorptivity) ([8]; tris-maleate pH 8.5, 10 μM) | Emmax (maximal emission wavelength) ([9]; tris-maleate pH 6.5, 10 μM) [nm] | Ex (optimal excitation wavelength) ([9]; tris-maleate pH 6.5, 10 μM) [nm] | RFU (relative fluorescence units multiplied by 1,000) ([9]; tris-maleate pH 6.5, 10 μM) | Emmax (maximal emission wavelength) ([9]; tris-maleate pH 7.5, 10 μM) [nm] | Ex (optimal excitation wavelength) ([9]; tris-maleate pH 7.5, 10 μM) [nm] | RFU (relative fluorescence units multiplied by 1,000) ([9]; tris-maleate pH 7.5, 10 μM) | also measured
1 | COc1ccc2cc(C(C#N)OC(=O)C3C(C=C(Cl)Cl)C3(C)C)ccc2c1 (mixture of isomers) [Compound II, (trans/cis)-3-(2,2-Dichlorovinyl)-2,2-dimethylcyclopropanecarboxylic Acid Cyano-(6-methoxynaphthalen-2-yl) Methyl Ester] | 270 ± 18 pmol/min/mg protein | <0.01 | <0.01 | <0.01 | 0.05 | 142,000 ± 520 pmol/min/mg protein | 840 ± 22 pmol/min/mg protein | 150 ± 9 pmol/min/mg protein |  |  |  |  |  |  |  |  |  |  |  |  | Specific Activity, With Enzyme System ([2]; with enzyme system): 102.4 ± 7.5 pmol/min/mg protein; Specific Activity, Without Enzyme System ([2]; without enzyme system): 33.4 ± 2.0 pmol/min/mg protein; Substrate stability, Fluorescence [3, 11]: <1 pmol/min; Substrate stability, Fluorescence [3, 12]: <1 pmol/min; Substrate stability, Fluorescence [3, 13]: <1 pmol/min; Substrate stability, Fluorescence [3, 14]: 10 pmol/min
2 | COc1ccc2cc(C(C#N)OC(C)=O)ccc2c1 (racemic) [Compound I, (R/S)-Acetic Acid Cyano-(6-methoxy-naphthalen-2-yl) Methyl Ester] | 39,800 ± 600 pmol/min/mg protein |  |  |  |  | 2,911,000 ± 1,780 pmol/min/mg protein | 25,100 ± 425 pmol/min/mg protein | 9,700 ± 220 pmol/min/mg protein | 0.086 | 3,000 | 0.137 | 3,420 | 0.142 | 3,550 | 410 | 360 | 241 RFU | 450 | 360 | 581 RFU | melting point: 84 to 85 °C; λmax ([8]; tris-maleate pH 6.5, 10 μM): 287 nm; λmax ([8]; tris-maleate pH 7.5, 10 μM): 287 nm; λmax ([8]; tris-maleate pH 8.5, 10 μM): 287 nm; Substrate stability, Fluorescence ([3]; 5 min, 10 μM, pH 6): <1 pmol/min; Substrate stability, Fluorescence ([3]; 5 min, 10 μM, pH 7): 8 pmol/min; Substrate stability, Fluorescence ([3]; 5 min, 10 μM, pH 8): 59 pmol/min; Substrate stability, Fluorescence ([3]; 5 min, 10 μM, pH 9): 138 pmol/min; emission peak ([9]; over the three pH levels tested (6.5, 7.5, 8.5)): 366 nm; Emmax (maximal emission wavelength) ([9]; tris-maleate pH 8.5, 10 μM): 450 nm; Ex (optimal excitation wavelength) ([9]; tris-maleate pH 8.5, 10 μM): 360 nm; RFU (relative fluorescence units multiplied by 1,000) ([9]; tris-maleate pH 8.5, 10 μM): 3,708 RFU; Sensitivity (minimal amount of enzyme per mL giving a signal at least three times background noise) ([10]; Fluorescence detection): 0.00002; Sensitivity (minimal amount of enzyme per mL giving a signal at least three times background noise) ([10]; UV detection): 0.001; Substrate stability, UV Absorption ([4]; 5 min, 10 μM, pH 6): <0.01 mAbs/min; Substrate stability, UV Absorption ([4]; 5 min, 10 μM, pH 7): <0.01 mAbs/min; Substrate stability, UV Absorption ([4]; 5 min, 10 μM, pH 8): <0.01 mAbs/min; Substrate stability, UV Absorption ([4]; 5 min, 10 μM, pH 9): 0.103 mAbs/min
3 | CC(=O)Oc1ccc2ccccc2c1 [Compound 2-NA, 2-naphthacetate, reference compound] |  | <0.01 | 0.05 | 0.44 | 0.555 |  |  |  | 0.14 | 3,500 | 0.141 | 3,500 | 0.133 | 3,300 |  |  |  |  |  |  | Sensitivity (minimal amount of enzyme per mL giving a signal at least three times background noise) ([10]; UV detection): 0.002
4 | CC(=O)Oc1ccc2c(C)cc(=O)oc2c1 [MUA, methylumbelyl acetate, reference compound] |  |  |  |  |  |  |  |  |  |  |  |  |  |  | 366 | 330 | 2,672 RFU | 366 | 330 | 1,350 RFU | Emmax (maximal emission wavelength) ([9]; tris-maleate pH 8.5, 10 μM): 366 nm; Ex (optimal excitation wavelength) ([9]; tris-maleate pH 8.5, 10 μM): 330 nm; RFU (relative fluorescence units multiplied by 1,000) ([9]; tris-maleate pH 8.5, 10 μM): 1,600 RFU; Sensitivity (minimal amount of enzyme per mL giving a signal at least three times background noise) ([10]; Fluorescence detection): 0.0005
